Results reported in PubChem BioAssay (NCI).
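Following 48 hours of exposure in 96-well plates, responses at five concentrations were used to interpolate endpoints linearly. At the TGI there is no net growth.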

Assays:
Assay in all cases: NCI anticancer screen, dose series, 48 h
[1] = test system: 786-0 renal
[2] = test system: A498 renal
[3] = test system: A549 NSCLC
[4] = test system: ACHN renal
[5] = test system: BT-549 breast
[6] = test system: CAKI-1 renal
[7] = test system: CCRF-CEM leukemia
[8] = test system: COLO 205 colon
[9] = test system: DU-145 prostate
[10] = test system: EKVX NSCLC
[11] = test system: HCC-2998 colon
[12] = test system: HCT-116 colon
[13] = test system: HCT-15 colon
[14] = test system: HL-60(TB) leukemia
[15] = test system: HOP-62 NSCLC
[16] = test system: HOP-92 NSCLC
[17] = test system: HS 578T breast
[18] = test system: HT29 colon
[19] = test system: IGROV1 ovarian
[20] = test system: K-562 leukemia
[21] = test system: KM12 colon
[22] = test system: LOX IMVI melanoma
[23] = test system: M14 melanoma
[24] = test system: MALME-3M melanoma
[25] = test system: MCF7 breast
[26] = test system: MDA-MB-231 breast
[27] = test system: MDA-MB-435
[28] = test system: MDA-N
[29] = test system: MOLT-4 leukemia
[30] = test system: NCI-H226 lung
[31] = test system: NCI-H23 lung
[32] = test system: NCI-H460 lung
[33] = test system: NCI-H522 lung
[34] = test system: NCI/ADR-RES ovarian
[35] = test system: OVCAR-3 ovarian
[36] = test system: OVCAR-4 ovarian
[37] = test system: OVCAR-5 ovarian
[38] = test system: OVCAR-8 ovarian
[39] = test system: PC-3 prostate
[40] = test system: RXF 393 renal
[41] = test system: SF-268 CNS
[42] = test system: SF-295 CNS
[43] = test system: SF-539 CNS
[44] = test system: SK-MEL-2 melanoma
[45] = test system: SK-MEL-28 melanoma
[46] = test system: SK-MEL-5 melanoma
[47] = test system: SK-OV-3 ovarian
[48] = test system: SN12C renal
[49] = test system: SNB-19 CNS
[50] = test system: SNB-75 CNS
[51] = test system: SW-620 colon
[52] = test system: T-47D breast
[53] = test system: TK-10 renal
[54] = test system: U251 CNS
[55] = test system: UACC-257 melanoma
[56] = test system: UACC-62 melanoma
[57] = test system: UO-31 renal
[58] = test system: RPMI-8226 leukemia

Measured: TGI

COc1cc2oc(-c3ccc4c(c3)OCO4)c(OC)c(=O)c2c(OC)c1OC
93 µM: [15]
39.8 µM: [16]
94 µM: [50]
99.5 µM: [41]
not listed: [58]
> 100 µM: all other assays above

CC(C)(C)c1ccc2c(c1)C(=O)c1ccccc1C2=O
87 µM: [50]
60.3 µM: [8]
80 µM: [40]
85 µM: [16]
65.8 µM: [29]
92.6 µM: [30]
68.8 µM: [18]
66.3 µM: [25]
40.2 µM: [46]
75.9 µM: [10]
not listed: [11] | [33] | [44]
> 100 µM: all other assays above
